For this assay, the system named is T1, BoGal36A.
T1 construct: gene Bacova_02091; predicted signal peptide removed, C-terminal His6 tag kept, pET28b+, E. coli BL21(DE3); tetramer (SEC 290 kDa)
The experiment in a line: continuous assay, p-nitrophenol release at […] nm, Michaelis-Menten fit. The format is biochemical, Bacteroides ovatus. To be noted: pH 6.0, 37 °C; 50 mM sodium citrate; 0.1-5 mM substrate.

Molecules are shown by their SMILES.

The Km is the substrate concentration at which the rate is half of its maximum. In the case of `O=[N+]([O-])c1ccc(O[C@H]2O[C@H](CO)[C@H](O)[C@H](O)[C@H]2O)cc1` [pNP-α-gal], the Km was determined as 132 ± 20 µM.

Source of the values: PMC5094572, “A β‐mannan utilization locus in Bacteroides ovatus involves a GH36 α‐galactosidase active on galactomannans” (Febs Letters, 2016).
